{
  "source": "patent US20200345021A1",
  "about": "“METHOD AND SYSTEM FOR ENHANCING THE EFFICACY USING IONIZED/A[…] PEROXIDE IN REDUCING MICROBIAL POPULATIONS, METHOD OF USE THEREOF” (priority 2019, published 2020)",
  "key": {"[1]": {"tested_on": "total aerobic plate count (APC), native microorganisms", "details": "for Total plate count: not inoculated", "procedure": "(§1) The untreated (control) and treated samples were placed separately in a Stomacher bag with 20˜100 ml of neutralizing buffer and pummeled at 260 rpm for 2 mm using Stomacher (Interscience Laboratories Inc.). Decimal dilutions of the samples were made with 0.1% peptone (Difco) and aliquots (0.1 or 1 ml) were spread plated in duplicate onto TSA with incubation at 37° C. for 24 h for the enumeration of total aerobic plate count (APC), and onto Dichloran Rose Bengal Chlortetracycline (DRBC, Difco) agar with incubation at 25° C. for 5 days for enumeration of yeast and mold. DRBC plates were wrapped with aluminum foil to […]. Experiments were conducted independently 8 times. Colonies were counted and reported as log CFU/piece.\n(§2) Produce items were placed onto a sterile test tube tack with inoculated area facing up. […] The distance and voltage between the two electrodes were 9 mm and 17 kV, respectively. […] After 45 s treatment, the chamber was sealed for 30 mins (dwell time) before removal of the fresh produce items. Experiment; were repeated three times."}, "yeast and mold": {"tested_on": "yeast and mold", "details": "for Yeast and mold count: not inoculated", "procedure": "as §1, §2"}, "Salmonella Typhimurium": {"tested_on": "Salmonella Typhimurium", "assay_type": "cell-based", "details": "for Reductions of Salmonella, range over the fresh produce items: all tested produce items and surfaces, optimized conditions", "description": "To minimize the risk of possible bacteria becoming airborne during treatments, attenuated and non-pathogenic bacteria were used in the study. Two strains of non-pathogenic S. Typhimurium (ATCC 53647 and 53648) and three strains of L. innocua (ATCC 33090, ATCC 51742 and ATCC BAA680) were obtained from American Type Culture Collection (ATCC) (Manassas, Va., USA). Further studies used E. coli O157:H7 (ATCC 700728), S. Typhimurium (ATCC 53647 and 53648), and L. innocua (ATCC 33090) obtained from American Type Culture Collection (ATCC) (Manassas, Va., USA) and maintained as a part of the culture collection at the USDA Eastern Regional Research Center (Wyndmoor, Pa. USA). The bacteria were made to be resistant to nalidixic acid by successive growth in Trypic Soy Broth (TSB) (Difco, Sparks, Md., USA) with increasing nalidixic acid concentrations. All strains were stored at −80° C. in 1 mL of TSB containing 10% glycerol. Working cultures of S. Typhimurium and L. innocua were maintained in 9 mL TSB (supplemented with 100 μg/mL nalidixic acid for S. Typhimurium) at 4° C. after incubating at 37° C. for […], respectively, and sub-cultured each time.\nEach strain of S. Typhimurium and L. innocua was cultured in 9 mL TSB (supplemented with 100 μg/mL nalidixic acid for S. Typhimurium) and incubated at 37° C. for 40 h and 48 h, respectively, harvested by centrifugation at 4000×g for 10 min at 4° C., and resuspended in 9 mL sterile Buffered Peptone Water (BPW; Difco). The pellets were resuspended in BPW to form cell suspensions with a final concentration of 108˜10^9 CFU/mL. Subsequently, suspended pellets of two strains of Salmonella and three strains of L. innocua were combined to obtain two separate culture cocktails.\nGrape tomatoes, granny smith apples, romaine lettuce and cantaloupes were purchased from local markets (Philadelphia, Pa., USA) and kept at 10° C. prior to use. Fruits and vegetables were removed from 10° C. refrigeration and equilibrated to ambient temperature before being inoculated. Romaine lettuce was divided into upper green leaf and midrib tissues. Six tomatoes, six pieces (2×2 cm) of apple skins, five pieces (3×3 cm) of Romaine lettuce upper leaves, five pieces (3 cm length) of Romaine lettuce midrib area and six pieces (2×2 cm) of cantaloupe rinds with 2×3 mm thickness of flesh were used for each treatment per replicate. Bach piece w as spot inoculated with 10 μL of Salmonella and L. innocua by depositing droplets with a micropipette. The inoculated samples were dried in a bio-hood for 1 h (for tomato surfaces, romaine lettuce, apple skins and cantaloupe rinds) or 2 h (for tomato stem scars) at ambient temperature.\nProduce items were placed onto a sterile test tube rack with the inoculated area facing up and the rack with produce pieces were placed inside of a treatment chamber (12×12×24 inch).\nTherefore, each kind of produce was treated with and without cold plasma ionized under the same optimized conditions.\nAfter each treatment, the tomato stem scars and surfaces with the inoculated bacteria were removed using a pair of sterile scissors. Each type of produce item from the same treatment was combined (total weight: 1.51±0.29 g for tomato stem scars; 2.07±0.15 g for tomato surfaces; 6.37±0.92 g for apple skins; 1.62±0.34 g for Romaine lettuce upper leaves: 13.30±2.97 g for Romaine lettuce midrib tissues: 9.58±1.26 g for cantaloupe rinds) and transferred into an 80 mL filtered stomacher bag. After addition of 30 mL BBL buffered peptone water into the bag, the sample in the bag was homogenized using a mini blender (Mini Mix CC, Interscience laboratories Inc., Woburn, Mass., USA) for 2 min at a setting of 4. […] Tryptic Soy Agar with 200 μg/mL pyruvate acid and 100 μg/mL nalidixic acid (TSA-PN) and PALCAM Agars (Difco) were used for the enumeration of S. Typhimurium and L. innocua, respectively."}, "[2]": {"description": "Specifically, a scanning mobility particle sizer (SMPS Model 3080, TSI inc., Shoreview, Minn., USA) and an aerodynamic particle sizer (APS Model 3321, TSI Inc.) were connected to the treatment chamber through an access port in the back of the treatment chamber to measure droplet sizes ranging from 2.5 to 210 nm, and from 0.5 to 20 μm, respectively."}, "L. innocua": {"tested_on": "L. innocua", "details": "45 s treatment + 30 min dwell"}, "[3]": {"details": "Cantaloupe rind, 30 s spray time + 30 min dwell, listed as H2O2 + cold plasma"}, "[4]": {"details": "Romaine lettuce-midrib, 30 s spray time + 30 min dwell, listed as H2O2 + cold plasma"}, "[5]": {"details": "Romaine lettuce-upper leaf, 30 s spray time + 30 min dwell, listed as H2O2 + cold plasma"}, "[6]": {"details": "Tomato-stem scar, three cycles of 20 s spray time plus 20 min dwell time, listed as H2O2 + cold plasma"}, "[7]": {"details": "treatment chamber, immediately after introduction"}},
  "note": "Several values for one entry are separate records, joined by “and”; a condition that tells them apart may be missing. Equal entries are not always repeated. Where two headings read alike, the source gives them in different places. Marks after values point to notes of the source that are not given here.",
  "data": [
    {"smiles": "OO", "note": "[H2O2, hydrogen peroxide]", "values": [
      {"measurement": "Total plate count", "setting": "[1]; cantaloupe", "value": "4.6 +/− 1.2a Log CFU/piece"},
      {"measurement": "Reduction in APC", "setting": "[1]; spinach leaves", "value": 1.3, "unit": "log"},
      {"measurement": "Total plate count", "setting": "[1]; spinach", "value": "4.7 +/− 1.3b Log CFU/piece"},
      {"measurement": "Total plate count", "setting": "[1]; tomato", "value": "5.4 +/− 0.5b Log CFU/piece"},
      {"measurement": "Reduction in APC", "setting": "[1]; tomatoes", "value": 0.5, "unit": "log"},
      {"measurement": "Yeast and mold count", "setting": "yeast and mold; cantaloupe", "value": "4.7 +/− 0.9a Log CFU/piece"},
      {"measurement": "Reduction of yeast and mold count", "setting": "yeast and mold; spinach", "value": 2.2, "unit": "log"},
      {"measurement": "Yeast and mold count", "setting": "yeast and mold; spinach", "value": "4.2 +/− 2.0b Log CFU/piece"},
      {"measurement": "Reduction of yeast and mold count", "setting": "yeast and mold; tomato", "value": 3.9, "unit": "log"},
      {"measurement": "Yeast and mold count", "setting": "yeast and mold; tomato", "value": "2.2 +/− 1.5b Log CFU/piece"},
      {"measurement": "Populations of Salmonella Typhimurium", "setting": "Salmonella Typhimurium; [3]", "value": "3.76 ± 0.53^c log CFU/piece"},
      {"measurement": "Reductions of Salmonella Typhimurium", "setting": "Salmonella Typhimurium; [3]", "value": "2.61 ± 0.53^x log CFU/piece"},
      {"measurement": "Reductions of Salmonella Typhimurium", "setting": "Salmonella Typhimurium; Granny Smith apples, 8 s spray time + 30 min dwell, listed as H2O2 + cold plasma", "value": "5.50 ± 0.19^x log CFU/piece"},
      {"measurement": "Reductions of Salmonella Typhimurium", "setting": "Salmonella Typhimurium; Granny Smith apples, 8 s spray time + 30 min dwell, listed as iHP", "value": "> 5", "unit": "log CFU/piece"},
      {"measurement": "Populations of Salmonella Typhimurium", "setting": "Salmonella Typhimurium; [4]", "value": "2.54 ± 0.32^c log CFU/piece"},
      {"measurement": "Reductions of Salmonella Typhimurium", "setting": "Salmonella Typhimurium; [4]", "value": "3.40 ± 0.32^x log CFU/piece"},
      {"measurement": "Populations of Salmonella Typhimurium", "setting": "Salmonella Typhimurium; [5]", "value": "3.54 ± 0.11^c log CFU/piece"},
      {"measurement": "Reductions of Salmonella Typhimurium", "setting": "Salmonella Typhimurium; [5]", "value": "2.88 ± 0.11^x log CFU/piece"},
      {"measurement": "Populations of Salmonella Typhimurium", "setting": "Salmonella Typhimurium; [6]", "value": "3.60 ± 0.70^c log CFU/piece"},
      {"measurement": "Reductions of Salmonella Typhimurium", "setting": "Salmonella Typhimurium; [6]", "value": "2.35 ± 0.30^x log CFU/piece"},
      {"measurement": "Reductions of Salmonella Typhimurium", "setting": "Salmonella Typhimurium; Tomato-surface, 8 s spray time + 30 min dwell, listed as H2O2 + cold plasma", "value": "5.28 ± 0.49^x log CFU/piece"},
      {"measurement": "Reductions of Salmonella Typhimurium", "setting": "Salmonella Typhimurium; Tomato-surface, 8 s spray time + 30 min dwell, listed as iHP", "value": "> 5", "unit": "log CFU/piece"},
      {"measurement": "Reductions of Salmonella, range over the fresh produce items", "setting": "Salmonella Typhimurium; listed as hydrogen peroxide (H2O2) with cold plasma", "value": "2.35-5.50 log CFU/piece"},
      {"measurement": "Reductions of Salmonella, range over the fresh produce items", "setting": "Salmonella Typhimurium; listed as iHP", "value": "2.35-5.50 log CFU/piece"},
      {"measurement": "Nanosize droplets remained in the treatment chamber", "setting": "[2]; after 30 min (end of treatment)", "value": "about 8%"},
      {"measurement": "Share of droplets in the range of <5 μm", "setting": "[2]; micrometer range, immediately after introduction", "value": "About 80%"},
      {"measurement": "Mean diameter of droplets in the micrometer range", "setting": "[2]; [7]", "value": 3.0, "unit": "μm"},
      {"measurement": "Mean diameter of nanosize droplets", "setting": "[2]; [7]", "value": 40.3, "unit": "nm"},
      {"measurement": "Mode (peak) of nanosize droplets", "setting": "[2]; [7]", "value": 33.4, "unit": "nm"},
      {"measurement": "Mode of droplets in the micrometer range", "setting": "[2]; [7]", "value": 4.0, "unit": "μm"},
      {"measurement": "Total number of droplets in micrometer range (0.5-20 μm)", "setting": "[2]; [7]", "value": "4390 #/cc"},
      {"measurement": "Total number of droplets in the nanosize range", "setting": "[2]; [7]", "value": "84,000 #/cc"},
      {"measurement": "Reduction of E. coli populations", "setting": "E. coli O157:H7", "value": 1.5, "unit": "log"},
      {"measurement": "Reduction of Salmonella", "setting": "S. Typhimurium", "value": 4.2, "unit": "log CFU/leaf"},
      {"measurement": "Populations of L. innocua", "setting": "L. innocua; cantaloupe", "value": "3.5 +/− 0.2b log CFU/piece"},
      {"measurement": "Reduction of L. innocua", "setting": "L. innocua; cantaloupe", "value": 3.0, "unit": "log CFU/piece"},
      {"measurement": "Populations of L. innocua", "setting": "L. innocua; spinach", "value": "2.5 +/− 1.9b log CFU/piece"},
      {"measurement": "Reduction of L. innocua", "setting": "L. innocua; surface of spinach leaves", "value": 4.0, "unit": "log CFU/leaf"},
      {"measurement": "Reduction of L. innocua", "setting": "L. innocua; tomato stem scar area, listed as ionized/aerosolized hydrogen peroxide (H2O2)", "value": "1.0-1.3 log CFU/piece and 1.3 log CFU/piece"},
      {"measurement": "Populations of L. innocua", "setting": "L. innocua; tomato stem scar", "value": "4.9 +/− 0.4b log CFU/piece"}
    ]}
  ]
}
